Measurements published in the supplement of paper PMC11061612.

Key:
Test in all cases: Bliss excess, mean over the matrix (fraction); higher = more synergy
[1] = tested on: C-33-A (Cervical Carcinoma)
Outline: (§1)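 Cell lines grown in DMEM/F12 or RPMI with 10% FBS were plated in 1536-well plates and held 24 hours at 37°C, 5% CO2 before 72 hours of exposure to two-drug dose matrices, with DMSO typically at 0.2%. CellTiter-Glo 2.0 luminescence gave viability, which was converted to inhibition. Vehicle wells were set to 0 and blank wells to 1. Combination Emax is the second-highest inhibition in the matrix, and Bliss excess is the observed combination effect minus the expected EA + EB − EA·EB, where EA and EB are the single-agent effects.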

[2] = tested on: COR-L88 (Small Cell Lung Carcinoma)
Outline: as §1

[3] = tested on: CPC-N (Small Cell Lung Carcinoma)
Outline: as §1

[4] = tested on: DBTRG-05MG (Glioblastoma)
Outline: as §1

ES6 (Ewing's Sarcoma) = tested on: ES6 (Ewing's Sarcoma)
Outline: as §1

[5] = tested on: LS-1034 (Colorectal Carcinoma)
Outline: as §1

[6] = tested on: MDA-MB-415 (Breast Carcinoma)
Outline: as §1

[7] = tested on: MOLP-8 (Plasma Cell Myeloma)
Outline: as §1

[8] = tested on: MOLT-13 (T-Lymphoblastic Leukemia)
Outline: as §1

[9] = tested on: MONO-MAC-6 (Acute Myeloid Leukemia)
Outline: as §1

[10] = tested on: MS-1 (Small Cell Lung Carcinoma)
Outline: as §1

[11] = tested on: NCI-H1876 (Small Cell Lung Carcinoma)
Outline: as §1

NCI-H2373 (Mesothelioma) = tested on: NCI-H2373 (Mesothelioma)
Outline: as §1

[12] = tested on: NCI-H3118 (Head and Neck Carcinoma)
Outline: as §1

[13] = tested on: OVCAR-3 (Ovarian Carcinoma)
Outline: as §1

[14] = tested on: P32-ISH (Burkitt's Lymphoma)
Outline: as §1

[15] = tested on: RCC-JW (Kidney Carcinoma)
Outline: as §1

[16] = tested on: SUP-M2 (T-Cell Non-Hodgkin's Lymphoma)
Outline: as §1

[17] = tested on: SiHa (Cervical Carcinoma)
Outline: as §1

[18] = tested on: ZR-75-30 (Breast Carcinoma)
Outline: as §1

Row | Compound | Bliss excess [1] | Bliss excess [2] | Bliss excess [3] | Bliss excess [4] | Bliss excess (ES6 (Ewing's Sarcoma)) | Bliss excess [5] | Bliss excess [6] | Bliss excess [7] | Bliss excess [8] | Bliss excess [9] | Bliss excess [10] | Bliss excess [11] | Bliss excess (NCI-H2373 (Mesothelioma)) | Bliss excess [12] | Bliss excess [13] | Bliss excess [14] | Bliss excess [15] | Bliss excess [16] | Bliss excess [17] | Bliss excess [18]
1 | COc1nnc2ccc(N3CCC(c4ccc(OCCN5CCN(C)C(=O)[C@H]5C)cc4)CC3)nn12 [AZD5153] + CCN(CCO)CCCOc1ccc2c(Nc3cc(CC(=O)Nc4cccc(F)c4)[nH]n3)ncnc2c1 [AZD2811] (first compound max 1 µM, 7x7, partner max 1 µM) | 0.0198 | -0.0231 | -0.0601 | -0.0036 | -0.0476 | -0.046 | -0.0346 | 0.0011 | -0.008 | 0.0519 | -0.0171 | 0.0183 | -0.0642 | -0.0437 | -0.0394 | -0.0959 | -0.0416 | -0.0132 | 0.0047 | -0.0008
2 | COc1nnc2ccc(N3CCC(c4ccc(OCCN5CCN(C)C(=O)[C@H]5C)cc4)CC3)nn12 [AZD5153] + Cn1cnc2c(F)c(Nc3ccc(Br)cc3Cl)c(C(=O)NOCCO)cc21 [Selumetinib] (first compound max 1 µM, 7x7, partner max 10 µM) | 0.0725 | -0.0196 | -0.0222 | -0.014 | 0.053 | 0.0264 | 0.0512 | 0.0094 | 0.085 | -0.008 | -0.0665 | -0.0499 | -0.0666 | -0.0164 | -0.0489 | -0.0417 | 0.0214 | -0.0138 | -0.0197 | -0.0133
3 | CC(=O)c1c(C)c2cnc(Nc3ccc(N4CCNCC4)cn3)nc2n(C2CCCC2)c1=O [Palbociclib] + Cc1c2c(nn1C)CSCc1cc(n(C)n1)CSc1cc(c3ccccc3c1)OCCCc1c(C(=O)O)n(C)c3c-2c(Cl)ccc13 [AZD5991] (first compound max 10 µM, 7x7, partner max 1 µM) | -0.0163 | 0.0122 | 0.0035 | -0.0561 | -0.0326 | -0.064 | -0.113 | 0.0347 | 0.0478 | -0.0016 | -0.0451 | 0.0191 | -0.0396 | 0.0084 | -0.0553 | 0.0299 | -0.0306 | -0.0132 | -0.0561 | -0.0372
4 | NC1(C(=O)N[C@@H](CCO)c2ccc(Cl)cc2)CCN(c2ncnc3[nH]ccc23)CC1 [Capivasertib] + CC(C)n1c(=O)n(C)c2cnc3cc(F)c(-c4ccc(OCCCN5CCCCC5)nc4)cc3c21 [AZD1390] (first compound max 10 µM, 7x7, partner max 0.3 µM) | -0.0383 | -0.0746 | -0.0435 | -0.0418 | -0.0981 | -0.0447 | -0.0297 | -0.0032 | -0.037 | -0.0262 | 0.0169 | -0.0805 | -0.051 | -0.0572 | -0.0438 | 0.0131 | -0.0366 | 0.0202 | -0.046 | -0.0471
5 | COc1nnc2ccc(N3CCC(c4ccc(OCCN5CCN(C)C(=O)[C@H]5C)cc4)CC3)nn12 [AZD5153] + C=CCn1c(=O)c2cnc(Nc3ccc(N4CCN(C)CC4)cc3)nc2n1-c1cccc(C(C)(C)O)n1 [AZD1775] (first compound max 1 µM, partner max 1 µM) | -0.0546 | -0.0249 | -0.0862 | -0.0053 | -0.0553 | -0.0549 | -0.0878 | -0.0204 | -0.0319 | -0.0323 | -0.0687 | 0.0224 | -0.0589 | -0.0981 | 0.0107 | -0.0649 | -0.022 | -0.0123 | -0.0583 | -0.042
6 | CC1(C)CCC(CN2CCN(c3ccc(C(=O)NS(=O)(=O)c4ccc(NCC5CCOCC5)c([N+](=O)[O-])c4)c(Oc4cnc5[nH]ccc5c4)c3)CC2)=C(c2ccc(Cl)cc2)C1 [Venetoclax] + Cn1cnc2c(F)c(Nc3ccc(Br)cc3Cl)c(C(=O)NOCCO)cc21 [Selumetinib] (first compound max 1 µM, 7x7, partner max 3 µM) | -0.0033 | 0.0341 | -0.0454 | 0.0064 | -0.0321 | -0.0644 | -0.0498 | -0.0737 | 0.241 | -0.0192 | -0.0273 | -0.0335 | -0.0468 | -0.0276 | -0.017 | 0.0152 | -0.0396 | 0.0165 | -0.0516 | -0.034
7 | CC1(C)CCC(CN2CCN(c3ccc(C(=O)NS(=O)(=O)c4ccc(NCC5CCOCC5)c([N+](=O)[O-])c4)c(Oc4cnc5[nH]ccc5c4)c3)CC2)=C(c2ccc(Cl)cc2)C1 [Venetoclax] + C[C@@H](Nc1cc(F)cc(F)c1)c1cc(C(=O)N(C)C)cc2c(=O)cc(N3CCOCC3)oc12 [AZD8186] (first compound max 1 µM, 7x7, partner max 3 µM) | -0.0523 | 0.0393 | 0.0256 | -0.0251 | -0.0661 | -0.0318 | -0.0128 | 0.0293 | 0.095 | 0.0531 | 0.0357 | -0.0181 | -0.0473 | -0.0439 | -0.0062 | 0.0385 | 0.0135 | 0.0106 | 0.0009 | -0.0201
